MIC data for 27 compounds are collected here from ChEMBL document CHEMBL5344406, “1,2,3-Triazole-containing hybrids with potential antibacterial activity against ESKAPE pathogens” (2022).

The structures appear in SMILES notation. Converted amounts (≈) assume the structure as drawn.

Format in all cases: functional
Experiment [1] relates to Pseudomonas aeruginosa. Nature of the experiment: Antibacterial activity against Pseudomonas aeruginosa assessed as bacterial growth inhibition.
Experiment [2] concerns Escherichia coli. Description: Antibacterial activity against Escherichia coli assessed as bacterial growth inhibition.
The next experiment concerns Klebsiella pneumoniae. Nature of the experiment: Antibacterial activity against Klebsiella pneumoniae ATCC 29665 assessed as bacterial growth inhibition incubated for 18 to 20 hrs by broth microdilution method. To be noted: time 18-20 hrs. (Broth dilution looks for growth in wells or tubes with falling amounts of substance.)
Experiment [3] relates to Staphylococcus aureus. Nature of the experiment: Antibacterial activity against Staphylococcus aureus ATCC 25923 assessed as bacterial growth inhibition incubated for 18 to 20 hrs by broth microdilution method. To be noted: time 18-20 hrs.
In the next experiment the test system is Acinetobacter baumannii. Nature of the experiment: Antibacterial activity against Acinetobacter baumannii ATCC 19606 assessed as bacterial growth inhibition incubated for 18 to 20 hrs by broth microdilution method. To be noted: time 18-20 hrs.
Experiment [4] concerns Pseudomonas aeruginosa. Description: Antibacterial activity against Pseudomonas aeruginosa ATCC 27853 assessed as bacterial growth inhibition incubated for 18 to 20 hrs by broth microdilution method. Conditions: time 18-20 hrs.
Experiment [5] concerns Escherichia coli. Nature of the experiment: Antibacterial activity against Escherichia coli ATCC 25922 assessed as bacterial growth inhibition incubated for 18 to 20 hrs by broth microdilution method. Conditions: time 18-20 hrs.
In experiment [6] the test system is Staphylococcus aureus. Description: Antibacterial activity against methicillin-resistant Staphylococcus aureus clinical isolate 2 assessed as bacterial growth inhibition incubated for 8 hrs by CLSI based broth microdilution method.
Experiment [7] deals with Staphylococcus aureus. Nature of the experiment: Antibacterial activity against methicillin-resistant Staphylococcus aureus clinical isolate 1 assessed as bacterial growth inhibition incubated for 8 hrs by CLSI based broth microdilution method.
In experiment [8] the test system is Escherichia coli. Description: Antibacterial activity against Escherichia coli assessed as bacterial growth inhibition by serial dilution method.
Experiment [9] has as its system Staphylococcus epidermidis. Description: Antibacterial activity against Staphylococcus epidermidis assessed as bacterial growth inhibition by serial dilution method.
The subject of the next experiment is Bacillus subtilis. Description: Antibacterial activity against Bacillus subtilis assessed as bacterial growth inhibition by serial dilution method.
In experiment [10] the test system is Pseudomonas aeruginosa. Nature of the experiment: Antibacterial activity against Pseudomonas aeruginosa assessed as bacterial growth inhibition by serial dilution method.
Experiment [11] relates to Staphylococcus aureus. Nature of the experiment: Antibacterial activity against Staphylococcus aureus assessed as bacterial growth inhibition by serial dilution method.

For orientation: MIC means the smallest concentration in the dilution series that meets the test's criterion for growth inhibition. Take `O=C(/C=C/c1ccc(OCc2cn(Cc3ccc(Br)cc3)nn2)cc1)c1ccc(Br)cc1`: the MIC in the experiment with Pseudomonas aeruginosa [1] and in the experiment on Escherichia coli [2] was 6.25 mg/L (≈ 11.3 µM) in each case.

Consider `O=C(/C=C/c1ccc(OCc2cn(Cc3ccccc3Br)nn2)cc1)c1ccc(Br)cc1`, for which the MIC with Pseudomonas aeruginosa [1] and in the experiment with Escherichia coli [2] was 6.25 mg/L (≈ 11.3 µM) in each case.

Take `O=C(/C=C/c1ccc(OCc2cn(Cc3cccc(Br)c3)nn2)cc1)c1ccc([N+](=O)[O-])cc1`: the MIC in the experiment on Pseudomonas aeruginosa [1] and in the experiment on Escherichia coli [2] was 6.25 mg/L (≈ 12 µM) throughout.

As to `O=C(/C=C/c1ccc(OCc2cn(Cc3ccc(Br)cc3)nn2)cc1)c1ccc([N+](=O)[O-])cc1`, the MIC with Pseudomonas aeruginosa [1] and with Escherichia coli [2] was 6.25 mg/L (≈ 12 µM) in each case.

`O=C(Cn1cc(CN2CCN(c3cc4c(cc3F)c(=O)c(C(=O)O)cn4C3CC3)CC2)nn1)N[C@@H](Cc1ccccc1)C(=O)O`: the MIC in the experiment with Klebsiella pneumoniae, with Staphylococcus aureus [3], in the experiment on Acinetobacter baumannii, with Pseudomonas aeruginosa [4] and with Escherichia coli [5] was 0.25 mg/L (≈ 0.405 µM) throughout.

For `Cc1cc(O)c(C(=O)/C=C/c2ccc(OCc3cn(Cc4ccc(Br)cc4)nn3)cc2)c(=O)o1`, the MIC in the experiment with Pseudomonas aeruginosa [1] and with Escherichia coli [2] was 1.56 mg/L (≈ 2.99 µM) throughout.

For the compound `CC(C)C[C@H](C(=O)N[C@@H]1Cc2ccc(c(Cl)c2)Oc2cc3cc(c2O[C@@H]2O[C@H](CO)[C@@H](O)[C@H](O)[C@H]2O[C@H]2C[C@](C)(NCCCCCCCc4ccccc4)[C@H](O)[C@H](C)O2)Oc2ccc(cc2Cl)[C@@H](O)[C@@H]2NC(=O)[C@H](NC(=O)[C@@H]3NC(=O)[C@H](CC(=O)O)NC1=O)c1ccc(O)c(c1)-c1c(O)cc(O)cc1[C@H](C(=O)O)NC2=O)n1cc(COCCOCCOCc2cn([C@H](CC(C)C)C(=O)N[C@@H]3Cc4ccc(c(Cl)c4)Oc4cc5cc(c4O[C@@H]4O[C@H](CO)[C@@H](O)[C@H](O)[C@H]4O[C@H]4C[C@](C)(NCCCCCCCc6ccccc6)[C@H](O)[C@H](C)O4)Oc4ccc(cc4Cl)[C@@H](O)[C@@H]4NC(=O)[C@H](NC(=O)[C@@H]5NC(=O)[C@H](CC(=O)O)NC3=O)c3ccc(O)c(c3)-c3c(O)cc(O)cc3[C@H](C(=O)O)NC4=O)nn2)nn1`, the MIC in the experiment on Staphylococcus aureus [6] and in the experiment with Staphylococcus aureus [7] was 6.25 mg/L (≈ 1.83 µM) each time.

In the case of `C#CCOCCOCCOCc1cn([C@H](CC(C)C)C(=O)N[C@@H]2Cc3ccc(c(Cl)c3)Oc3cc4cc(c3O[C@@H]3O[C@H](CO)[C@@H](O)[C@H](O)[C@H]3O[C@H]3C[C@](C)(NCCCCCCCc5ccccc5)[C@H](O)[C@H](C)O3)Oc3ccc(cc3Cl)[C@@H](O)[C@@H]3NC(=O)[C@H](NC(=O)[C@@H]4NC(=O)[C@H](CC(=O)O)NC2=O)c2ccc(O)c(c2)-c2c(O)cc(O)cc2[C@H](C(=O)O)NC3=O)nn1`, the values for the MIC with Staphylococcus aureus [6] and in the experiment with Staphylococcus aureus [7] were 12.5 mg/L (≈ 6.93 µM) and 25 mg/L (≈ 13.9 µM), respectively.

As to `CC(C)C[C@H](C(=O)N[C@@H]1Cc2ccc(c(Cl)c2)Oc2cc3cc(c2O[C@@H]2O[C@H](CO)[C@@H](O)[C@H](O)[C@H]2O[C@H]2C[C@](C)(NCCCCCCCc4ccccc4)[C@H](O)[C@H](C)O2)Oc2ccc(cc2Cl)[C@@H](O)[C@@H]2NC(=O)[C@H](NC(=O)[C@@H]3NC(=O)[C@H](CC(=O)O)NC1=O)c1ccc(O)c(c1)-c1c(O)cc(O)cc1[C@H](C(=O)O)NC2=O)n1cc(COCCCCCCOCc2cn([C@H](CC(C)C)C(=O)N[C@@H]3Cc4ccc(c(Cl)c4)Oc4cc5cc(c4O[C@@H]4O[C@H](CO)[C@@H](O)[C@H](O)[C@H]4O[C@H]4C[C@](C)(NCCCCCCCc6ccccc6)[C@H](O)[C@H](C)O4)Oc4ccc(cc4Cl)[C@@H](O)[C@@H]4NC(=O)[C@H](NC(=O)[C@@H]5NC(=O)[C@H](CC(=O)O)NC3=O)c3ccc(O)c(c3)-c3c(O)cc(O)cc3[C@H](C(=O)O)NC4=O)nn2)nn1`, the MIC with Staphylococcus aureus [6] and in the experiment with Staphylococcus aureus [7] was 6.25 mg/L (≈ 1.82 µM) throughout.

As for `NC(=O)N/N=C/c1ccccc1OCc1cn(-c2ccc(Br)cc2)nn1`, the MIC (in the experiment with Escherichia coli [8]; in [9]; in the experiment with Bacillus subtilis; in the experiment on Pseudomonas aeruginosa [10]; with Staphylococcus aureus [11]) was 25 mg/L (≈ 60.2 µM) in each case.

As for `COc1ccc(-n2cc(COc3ccccc3/C=N/NC(N)=O)nn2)cc1`, the MIC (in the experiment with Escherichia coli [8]; in [9]; with Bacillus subtilis; with Pseudomonas aeruginosa [10]; in the experiment on Staphylococcus aureus [11]) was 25 mg/L (≈ 68.2 µM) each time.

Take `NC(=S)N/N=C/c1ccc(OCc2cn(Cc3ccc(Br)cc3)nn2)cc1`: the MIC (in the experiment with Escherichia coli [8]; in experiment [9]; in the experiment on Bacillus subtilis; with Pseudomonas aeruginosa [10]; in the experiment on Staphylococcus aureus [11]) was 6.25 mg/L (≈ 14 µM) throughout.

As to `COc1ccc(C[C@H](NC(=O)Cn2cc(CN3CCN(c4cc5c(cc4F)c(=O)c(C(=O)O)cn5C4CC4)CC3)nn2)C(=O)O)cc1OC`, the MIC in the experiment on Klebsiella pneumoniae, with Staphylococcus aureus [3], in the experiment with Acinetobacter baumannii, in the experiment with Pseudomonas aeruginosa [4] and in the experiment on Escherichia coli [5] was 0.25 mg/L (≈ 0.369 µM) each time.

Take `COc1ccc(Cn2cc(COc3ccc(/C=C/C(=O)c4c(O)cc(C)oc4=O)cc3)nn2)cc1`: the MIC with Pseudomonas aeruginosa [1] and in the experiment with Escherichia coli [2] was 1.56 mg/L (≈ 3.29 µM) throughout.

For `O=C(Nc1ccc(F)cc1)OCc1cn(Cc2ccc(Br)cc2)nn1`, the MIC (with Escherichia coli [8]; in experiment [9]; in the experiment with Bacillus subtilis; in the experiment on Pseudomonas aeruginosa [10]) was 3.12 mg/L (≈ 7.7 µM) each time.

In the case of `NC(=O)N/N=C/c1ccccc1OCc1cn(-c2ccc(F)cc2)nn1`, the MIC (in the experiment on Escherichia coli [8]; in [9]; in the experiment on Bacillus subtilis; in the experiment on Pseudomonas aeruginosa [10]; in the experiment on Staphylococcus aureus [11]) was 25 mg/L (≈ 70.6 µM) throughout.

With `NC(=O)N/N=C/c1ccccc1OCc1cn(-c2ccc(Cl)cc2)nn1`, the MIC (in the experiment with Escherichia coli [8]; in experiment [9]; in the experiment on Bacillus subtilis; with Pseudomonas aeruginosa [10]; with Staphylococcus aureus [11]) was 25 mg/L (≈ 67.4 µM) throughout.

With `NC(=S)N/N=C/c1ccccc1OCc1cn(Cc2ccc(Br)cc2)nn1`, the MIC (in the experiment with Escherichia coli [8]; in experiment [9]; in the experiment on Bacillus subtilis; in the experiment with Pseudomonas aeruginosa [10]; in the experiment on Staphylococcus aureus [11]) was 6.25 mg/L (≈ 14 µM) in each case.

Consider `O=C(Cn1cc(CN2CCN(c3cc4c(cc3F)c(=O)c(C(=O)O)cn4C3CC3)CC2)nn1)N[C@@H](Cc1cc(=O)[nH]c2ccccc12)C(=O)O`, for which the MIC in the experiment on Klebsiella pneumoniae, with Staphylococcus aureus [3], with Acinetobacter baumannii, in the experiment with Pseudomonas aeruginosa [4] and in the experiment with Escherichia coli [5] was 0.25 mg/L (≈ 0.365 µM) in each case.

In the case of `O=C(O)c1cn(C2CC2)c2cc(N3CCN(Cc4cn(CC(=O)N5CCC[C@H]5C(=O)O)nn4)CC3)c(F)cc2c1=O`, the MIC with Klebsiella pneumoniae, with Staphylococcus aureus [3], in the experiment with Acinetobacter baumannii, in the experiment with Pseudomonas aeruginosa [4] and in the experiment with Escherichia coli [5] was 0.25 mg/L (≈ 0.44 µM) each time.

With `NC(=S)N/N=C/c1cccc(OCc2cn(Cc3ccc(Br)cc3)nn2)c1`, the MIC (in the experiment on Escherichia coli [8]; in experiment [9]; in the experiment with Bacillus subtilis; with Pseudomonas aeruginosa [10]; with Staphylococcus aureus [11]) was 6.25 mg/L (≈ 14 µM) throughout.

As to `O=C(Cn1cc(CN2CCN(c3cc4c(cc3F)c(=O)c(C(=O)O)cn4C3CC3)CC2)nn1)N[C@@H](Cc1ccccn1)C(=O)O`, the MIC in the experiment on Klebsiella pneumoniae, in the experiment on Staphylococcus aureus [3], in the experiment on Acinetobacter baumannii, with Pseudomonas aeruginosa [4] and in the experiment on Escherichia coli [5] was 0.25 mg/L (≈ 0.404 µM) each time.

Consider `COC(=O)[C@H](C)NC(=O)c1cc(=O)n(Cc2cn(C3O[C@H]4OC(C)(C)O[C@H]4[C@@H]4OC(C)(C)OC[C@@H]34)nn2)c2ccccc12` (stereo partly drawn), for which the MIC in the experiment on Escherichia coli [2] was found to be 9.75 mg/L (≈ 16.3 µM).

With `O=C(Cn1cc(CN2CCN(c3cc4c(cc3F)c(=O)c(C(=O)O)cn4C3CC3)CC2)nn1)N[C@@H](Cc1ccccc1C(F)(F)F)C(=O)O`, the MIC with Klebsiella pneumoniae, with Staphylococcus aureus [3], with Acinetobacter baumannii, in the experiment on Pseudomonas aeruginosa [4] and in the experiment on Escherichia coli [5] was 0.25 mg/L (≈ 0.365 µM) each time.

On to `C=CCOc1ccc(C[C@H](NC(=O)Cn2cc(CN3CCN(c4cc5c(cc4F)c(=O)c(C(=O)O)cn5C4CC4)CC3)nn2)C(=O)O)cc1`, for which the MIC in the experiment with Klebsiella pneumoniae, in the experiment with Staphylococcus aureus [3], with Acinetobacter baumannii, in the experiment with Pseudomonas aeruginosa [4] and in the experiment with Escherichia coli [5] was 0.25 mg/L (≈ 0.371 µM) in each case.

Take `NC(=O)N/N=C/c1ccccc1OCc1cn(-c2ccccc2)nn1`: the MIC (in the experiment with Escherichia coli [8]; in [9]; in the experiment with Bacillus subtilis; with Pseudomonas aeruginosa [10]; with Staphylococcus aureus [11]) was 25 mg/L (≈ 74.3 µM) each time.

Take `O=C(Cn1cc(CN2CCN(c3cc4c(cc3F)c(=O)c(C(=O)O)cn4C3CC3)CC2)nn1)N[C@@H](CSc1ccccc1)C(=O)O`: the MIC in the experiment with Klebsiella pneumoniae, with Staphylococcus aureus [3], in the experiment with Acinetobacter baumannii, with Pseudomonas aeruginosa [4] and in the experiment on Escherichia coli [5] was 0.25 mg/L (≈ 0.385 µM) each time.
